For assay [1], the system named is Escherichia coli. Put plainly: Antibacterial activity against Escherichia coli DC2 permeability mutant. Type of assay: functional.
The next assay relates to Enterobacter cloacae. Put plainly: Antibacterial activity against Enterobacter cloacae P99. Type of assay: functional.
For assay [2], the system named is Mycobacterium tuberculosis. Put plainly: Antibacterial activity against Mycobacterium tuberculosis H37Rv by microplate alamar blue assay. Type of assay: functional. Background: Resazurin is reduced to fluorescent resorufin, in cell work by metabolically active cells.
Another assay has as its system Vero. Briefly: Cytotoxicity against Vero cells. In kind it is cell-based. The following applies: Chlorocebus sabaeus.
Assay [3] concerns Escherichia coli. Briefly: Antibacterial activity against Escherichia coli DC0. Type of assay: functional, organism-based.
Assay [4] deals with Pseudomonas aeruginosa. Briefly: Antibacterial activity against Pseudomonas aeruginosa KW 799. In kind it is functional.
The subject of assay [5] is Mycolicibacterium aurum. Briefly: Antibacterial activity against Mycobacterium aurum DSM 43436. In kind it is functional.
Assay [6] relates to Pseudomonas aeruginosa. Put plainly: Antibacterial activity against Pseudomonas aeruginosa KW 799/ 61 permeability mutant. In kind it is functional.
The subject of assay [7] is Staphylococcus aureus. Briefly: Antibacterial activity against Staphylococcus aureus SG 511. In kind it is functional.
In assay [8] the test system is Mycolicibacterium fortuitum. Briefly: Antibacterial activity against Mycobacterium fortuitum B. Type of assay: functional.
A further assay has as its system Enterococcus faecalis. Briefly: Antibacterial activity against Enterococcus faecalis 1528 VRE. In kind it is functional.
A further assay has as its system Mycolicibacterium vaccae. Briefly: Antibacterial activity against Mycobacterium vaccae IMET10670. In kind it is functional.
The subject of assay [9] is Mycolicibacterium aurum. Briefly: Antibacterial activity against Mycobacterium aurum SB66. Type of assay: functional.
The subject of the next assay is Micrococcus luteus. Briefly: Antibacterial activity against Micrococcus luteus ATCC 10240. Type of assay: functional.
In assay [10] the test system is Mycolicibacterium smegmatis. Briefly: Antibacterial activity against Mycobacterium smegmatis SG987. Type of assay: functional.
Assay [11] has as its system Staphylococcus aureus. Briefly: Antibacterial activity against Staphylococcus aureus 134/93 MRSA. Type of assay: functional.

≈ marks a conversion by molar mass, not a printed value.

Turning to `O=C(Cc1ccccc1)N[C@@H]1C(=O)N2C(C(=O)OC(c3ccccc3)c3ccccc3)=C(COC(=O)N3CCN(c4cc5c(cc4F)c(=O)c(C(=O)O)cn5C4CC4)CC3)CS[C@H]12`, the MIC (usually the least concentration at which growth counts as inhibited) was 0.2 µM (≈ 0.174 µg/mL) in the assay with Escherichia coli [1]; less than 0.1 µM against Enterobacter cloacae; 8 µM (≈ 6.98 µg/mL) in [2]; 1.56 µM (≈ 1.36 µg/mL) against Pseudomonas aeruginosa [4]; 0.2 µM (≈ 0.174 µg/mL) against Mycolicibacterium aurum [5]; 1.56 µM (≈ 1.36 µg/mL) in the assay with Pseudomonas aeruginosa [6]. For the same compound, the minimal inhibitory concentration (MIC) with Staphylococcus aureus [7] came out at 0.2 µM (≈ 0.174 µg/mL); in assay [8], 0.8 µM (≈ 0.698 µg/mL); with Enterococcus faecalis it was 3.12 µM (≈ 2.72 µg/mL); against Mycolicibacterium vaccae it was 1.56 µM (≈ 1.36 µg/mL); against Mycolicibacterium aurum [9] it was 0.2 µM (≈ 0.174 µg/mL); against Micrococcus luteus, 12.5 µM (≈ 10.9 µg/mL). For the same compound, the MIC was found to be 1.56 µM (≈ 1.36 µg/mL) in [10] and 100 µM (≈ 87.2 µg/mL) against Staphylococcus aureus [11]. For the same compound, the IC50 (commonly the concentration needed to halve the response being measured) was greater than 128 µM in the assay with Vero and 1.56 µM in the assay on Escherichia coli [3].

As for `O=C(Cc1ccccc1)N[C@@H]1C(=O)N2C(C(=O)O)=C(CN3CCN(c4cc5c(cc4F)c(=O)c(C(=O)O)cn5C4CC4)CC3)CS[C@H]12`, the MIC in the assay on Escherichia coli [1] is 0.8 µM (≈ 0.529 µg/mL); with Enterobacter cloacae, 0.1 µM (≈ 0.0662 µg/mL); in [2], 3.8 µM (≈ 2.51 µg/mL); against Escherichia coli [3] it was 3.12 µM (≈ 2.06 µg/mL); with Pseudomonas aeruginosa [4] it was 1.56 µM (≈ 1.03 µg/mL); in the assay with Mycolicibacterium aurum [5] it was 0.4 µM (≈ 0.265 µg/mL). In addition, the MIC against Pseudomonas aeruginosa [6] came out at 1.56 µM (≈ 1.03 µg/mL); in the assay with Staphylococcus aureus [7], 1.56 µM (≈ 1.03 µg/mL); in [8], 3.12 µM (≈ 2.06 µg/mL); with Enterococcus faecalis, 12.5 µM (≈ 8.27 µg/mL); against Mycolicibacterium vaccae, 3.12 µM (≈ 2.06 µg/mL); with Mycolicibacterium aurum [9], 0.4 µM (≈ 0.265 µg/mL). Also, the minimal inhibitory concentration (MIC) is 0.4 µM (≈ 0.265 µg/mL) in the assay on Micrococcus luteus, 3.12 µM (≈ 2.06 µg/mL) in assay [10] and 200 µM (≈ 132 µg/mL) with Staphylococcus aureus [11]. In the assay on Vero, the IC50 was greater than 128 µM.

For the compound `COc1ccc(COC(=O)C2=C(CI)CS[C@@H]3[C@H](NC(=O)Cc4ccccc4)C(=O)N23)cc1`, the MIC was 200 µM (≈ 116 µg/mL) in the assay with Escherichia coli [1]; 100 µM (≈ 57.8 µg/mL) against Enterobacter cloacae; greater than 128 µM in assay [2]; 200 µM (≈ 116 µg/mL) in the assay on Escherichia coli [3]; 100 µM (≈ 57.8 µg/mL) with Pseudomonas aeruginosa [4]; 50 µM (≈ 28.9 µg/mL) in the assay on Mycolicibacterium aurum [5]. The minimum inhibitory concentration (MIC) in the assay with Pseudomonas aeruginosa [6] amounted to 100 µM (≈ 57.8 µg/mL); in the assay on Staphylococcus aureus [7], 6.25 µM (≈ 3.62 µg/mL); in assay [8] it was 200 µM (≈ 116 µg/mL); with Enterococcus faecalis it was 200 µM (≈ 116 µg/mL); against Mycolicibacterium vaccae, 100 µM (≈ 57.8 µg/mL); in the assay with Mycolicibacterium aurum [9] it was 100 µM (≈ 57.8 µg/mL). For the same compound, the values for the minimum inhibitory concentration (MIC) (in the assay with Micrococcus luteus; in assay [10]; with Staphylococcus aureus [11]) were 100 µM (≈ 57.8 µg/mL), greater than 200 µM and greater than 200 µM, respectively.

`O=C(O)c1cn(C2CC2)c2cc(N3CCNCC3)c(F)cc2c1=O` [CIPROFLOXACIN]: the minimal inhibitory concentration (MIC) was less than 0.1 µM in the assay with Escherichia coli [1]; 1.8 µM (≈ 0.596 µg/mL) in [2]; 0.4 µM (≈ 0.133 µg/mL) against Escherichia coli [3]; 0.8 µM (≈ 0.265 µg/mL) in the assay with Pseudomonas aeruginosa [4]; 0.1 µM (≈ 0.0331 µg/mL) against Mycolicibacterium aurum [5]; 0.4 µM (≈ 0.133 µg/mL) in the assay on Pseudomonas aeruginosa [6]. Moreover, the MIC is 0.8 µM (≈ 0.265 µg/mL) against Staphylococcus aureus [7]; 0.2 µM (≈ 0.0663 µg/mL) in assay [8]; 1.56 µM (≈ 0.517 µg/mL) in the assay with Enterococcus faecalis; 0.8 µM (≈ 0.265 µg/mL) in the assay on Mycolicibacterium vaccae; 0.1 µM (≈ 0.0331 µg/mL) against Mycolicibacterium aurum [9]; 25 µM (≈ 8.28 µg/mL) in the assay on Micrococcus luteus. Also, the MIC is 0.8 µM (≈ 0.265 µg/mL) in assay [10] and 50 µM (≈ 16.6 µg/mL) against Staphylococcus aureus [11].

As to `COc1ccc(COC(=O)C2=C(CCl)CS[C@@H]3[C@H](NC(=O)Cc4ccccc4)C(=O)N23)cc1`, the MIC is 31.5 µM (≈ 15.3 µg/mL) in assay [2]; 200 µM (≈ 97.4 µg/mL) against Escherichia coli [3]; 100 µM (≈ 48.7 µg/mL) in the assay with Pseudomonas aeruginosa [4]; 50 µM (≈ 24.3 µg/mL) in the assay with Pseudomonas aeruginosa [6]; 1.56 µM (≈ 0.76 µg/mL) in the assay on Staphylococcus aureus [7]; 100 µM (≈ 48.7 µg/mL) in assay [8]. Besides, the minimal inhibitory concentration (MIC) in the assay on Mycolicibacterium vaccae was found to be 100 µM (≈ 48.7 µg/mL); in the assay on Micrococcus luteus, 50 µM (≈ 24.3 µg/mL).

`O=C(Cc1ccccc1)N[C@@H]1C(=O)N2C(C(=O)OC(c3ccccc3)c3ccccc3)=C(CO)CS[C@H]12`: the MIC is 200 µM (≈ 103 µg/mL) against Escherichia coli [1]; 200 µM (≈ 103 µg/mL) against Enterobacter cloacae; greater than 128 µM in [2]; greater than 200 µM with Escherichia coli [3]; 100 µM (≈ 51.5 µg/mL) against Pseudomonas aeruginosa [4]; 25 µM (≈ 12.9 µg/mL) against Mycolicibacterium aurum [5]. Besides, the minimum inhibitory concentration (MIC) against Pseudomonas aeruginosa [6] stood at 100 µM (≈ 51.5 µg/mL); against Staphylococcus aureus [7], 3.12 µM (≈ 1.61 µg/mL); in [8], 200 µM (≈ 103 µg/mL); in the assay on Enterococcus faecalis, 200 µM (≈ 103 µg/mL); against Mycolicibacterium vaccae it was 200 µM (≈ 103 µg/mL); with Mycolicibacterium aurum [9] it was 50 µM (≈ 25.7 µg/mL). The MIC was 25 µM (≈ 12.9 µg/mL) in the assay on Micrococcus luteus, 200 µM (≈ 103 µg/mL) in assay [10] and greater than 200 µM in the assay on Staphylococcus aureus [11].

As for `COc1ccc(COC(=O)C2=C(CN3CCN(c4cc5c(cc4F)c(=O)c(C(=O)O)cn5C4CC4)CC3)CS[C@@H]3[C@H](NC(=O)Cc4ccccc4)C(=O)N23)cc1`, the minimal inhibitory concentration (MIC) in the assay on Escherichia coli [1] was 6.25 µM (≈ 4.89 µg/mL); with Enterobacter cloacae, 0.4 µM (≈ 0.313 µg/mL); in assay [2], 62.3 µM (≈ 48.7 µg/mL); against Escherichia coli [3] it was 25 µM (≈ 19.5 µg/mL); against Pseudomonas aeruginosa [4] it was 12.5 µM (≈ 9.77 µg/mL); with Mycolicibacterium aurum [5], 1.56 µM (≈ 1.22 µg/mL). The MIC in the assay on Pseudomonas aeruginosa [6] came to 12.5 µM (≈ 9.77 µg/mL); with Staphylococcus aureus [7], 1.56 µM (≈ 1.22 µg/mL); in assay [8], 12.5 µM (≈ 9.77 µg/mL); in the assay with Enterococcus faecalis, 50 µM (≈ 39.1 µg/mL); in the assay with Mycolicibacterium vaccae, 3.12 µM (≈ 2.44 µg/mL); with Mycolicibacterium aurum [9], 0.8 µM (≈ 0.625 µg/mL). Moreover, the figures for the MIC (in the assay on Micrococcus luteus; in [10]; in the assay with Staphylococcus aureus [11]) were 3.12 µM (≈ 2.44 µg/mL), 12.5 µM (≈ 9.77 µg/mL) and greater than 200 µM, respectively. This compound gave an IC50 with Vero of 13.1 µM.

With `O=C(Cc1ccccc1)N[C@@H]1C(=O)N2C(C(=O)O)=C(COC(=O)N3CCN(c4cc5c(cc4F)c(=O)c(C(=O)O)cn5C4CC4)CC3)CS[C@H]12`, the minimum inhibitory concentration (MIC) in the assay with Escherichia coli [1] worked out at 0.8 µM (≈ 0.565 µg/mL); with Enterobacter cloacae it was 0.2 µM (≈ 0.141 µg/mL); in assay [2], 1.6 µM (≈ 1.13 µg/mL); with Escherichia coli [3], 3.12 µM (≈ 2.2 µg/mL); in the assay with Pseudomonas aeruginosa [4], 3.12 µM (≈ 2.2 µg/mL); against Mycolicibacterium aurum [5] it was 0.2 µM (≈ 0.141 µg/mL). The minimal inhibitory concentration (MIC) in the assay with Pseudomonas aeruginosa [6] worked out at 3.12 µM (≈ 2.2 µg/mL); with Staphylococcus aureus [7], 0.4 µM (≈ 0.282 µg/mL); in assay [8] it was 0.8 µM (≈ 0.565 µg/mL); against Enterococcus faecalis, 6.25 µM (≈ 4.41 µg/mL); in the assay with Mycolicibacterium vaccae it was 1.56 µM (≈ 1.1 µg/mL); against Mycolicibacterium aurum [9], 0.2 µM (≈ 0.141 µg/mL). The MIC in the assay on Micrococcus luteus was found to be 0.2 µM (≈ 0.141 µg/mL); in assay [10], 3.12 µM (≈ 2.2 µg/mL); against Staphylococcus aureus [11], 200 µM (≈ 141 µg/mL). Also, the 50% inhibitory concentration (IC50) in the assay on Vero is greater than 128 µM.

Source of the values: ChEMBL document CHEMBL1139710, “Syntheses and studies of quinolone-cephalosporins as potential anti-tuberculosis agents” (Bioorg Med Chem Lett, 2006).
